Laboratory results taken from patent US20150087673A1, “METHODS FOR USING AND BIOMARKERS FOR AMPK-ACTIVATING COMPOUNDS” (RIGEL PHARMACEUTICALS, INC., priority 2013, published 2015).

What was measured:
[1] = tested on: AMPK; test: AMPK activation assay (enzyme-linked immunosorbent assay); type: cell-based
Summary of the method: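 Test compounds were added, and kinase activation was then detected by immunoassay following established kit procedures.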

[2] = tested on: db/db mice; test: [U-13C]-palmitate tracer analysis (13CO2/12CO2 enrichment) in db/db mice; type: in vivo, mouse
Excerpt: The elevated levels of BHBA detected by the global metabolite profiling are an indirect indicator of an increase in lipid oxidation. […] Appearance of ^13CO2 occurs via β-oxidation of the labeled palmitate to release ^13C-acetyl CoA, which must pass through one round of the TCA cycle before the labeled carbon can be given off as ^13CO2. An increased β-oxidation rate will result in a corresponding increase in ^13CO2 enrichment. In agreement with the elevation in relative BHBA levels detected in liver, adipose, and skeletal muscle tissues, an increase in ^13CO2 enrichment is observed for compound 309 treatment across all three tissues at both 60 and 120 minutes after palmitate administration. Ratios of ^13CO2 to ^12CO2 were higher for all treatment groups, including the vehicle, at 120 minutes compared to 60 minutes after palmitate feeding (FIG. 2). This time-dependent elevation was due to the slow absorption kinetics of the orally administered tracer suspension.
Male db/db mice (8 weeks) were orally gavaged once daily with vehicle, 5 mg/kg compound 309, or 10 mg/kg compound 309. Thirty minutes after dosing at day 8, 0.5 mg/kg of the metabolic tracer was administered, either via intraperitoneal injection for [U-^13C]-glucose or oral gavage for [U-^13C]-palmitate, followed by collection of liver, muscle, adipose tissue, and plasma at the timepoints indicated in the figure legends. Frozen samples were sent to SiDMAP, LLC (Los Angeles, Calif.) for isotope tracer analysis [Boros L G, Huang D, Heaney A P (2012) Fructose Drives Glucose via Direct Oxidation and Promotes Palmitate/Oleate Co-Release from Hepg2 Cells: Relevance with the Randle Cycle. […]
The elevated levels of BHBA detected by the global metabolite profiling are an indirect indicator that compound 309 treatment increases lipid oxidation. […] In agreement with the elevation in relative BHBA levels detected in liver, adipose, and skeletal muscle tissues, an increase in ^13CO2 enrichment is observed for compound 309 treatment across all three tissues at both 60 and 120 minutes after palmitate administration. […]

[3] = tested on: db/db mice; test: [U-13C]-D-glucose tracer analysis in db/db mice; type: in vivo, mouse
Method: Male db/db mice (8 weeks) were orally gavaged once daily with vehicle, 5 mg/kg compound 309, or 10 mg/kg compound 309. Thirty minutes after dosing at day 8, 0.5 mg/kg of the metabolic tracer was administered, either via intraperitoneal injection for [U-^13C]-glucose or oral gavage for [U-^13C]-palmitate, followed by collection of liver, muscle, adipose tissue, and plasma at the timepoints indicated in the figure legends. Frozen samples were sent to SiDMAP, LLC (Los Angeles, Calif.) for isotope tracer analysis [Boros L G, Huang D, Heaney A P (2012) Fructose Drives Glucose via Direct Oxidation and Promotes Palmitate/Oleate Co-Release from Hepg2 Cells: Relevance with the Randle Cycle. Metabolomics 2: 107-115; Huang J, Simcox J, Mitchell T C, Jones D, Cox J, et al. (2013) Iron regulates glucose homeostasis in liver and muscle via AMP-activated protein kinase in mice. FASEB J.]. [U-^13C]-D-glucose and [U-^13C]-palmitate were from Sigma-Aldrich. Sample preparation, analysis, and informatics were performed on blinded samples. Statistical analyses were performed using the 2-tailed Student t test.
A more sensitive [U-^13C]-D-glucose tracer analysis was carried out as follows: Non-fasted db/db mice treated with vehicle or compound 309 for one week were given an intraperitoneal injection of an [U-^13C]-D-glucose tracer (0.5 mg/kg) followed by measurements of tracer carbon incorporation into various metabolites after glucose injection.

For COc1ccc(C(=O)C2CCN(C(=O)c3ccc(C(=O)NC4CCN(Cc5ccc(C#N)cc5)CC4)cn3)CC2)cc1 [Compound 309, N-(1-(4-cyanobenzyl)piperidin-4-yl)-6-(4-(4-methoxybenzoyl)piperidine-1-carbonyl)nicotinamide], the EC50 [1] was < 0.5 µM, the “13CO2 enrichment after [U-13C]-palmitate” value ([2]; liver, adipose and skeletal muscle, 60 and 120 minutes after palmitate administration, treated one week) was “increase” and the fatty acid oxidation ([2]; liver, skeletal muscle and adipose tissue, chronic treatment of db/db mice) was “directly upregulated”. The “dose-dependence of 13CO2 enrichment after [U-13C]-palmitate” value ([2]; skeletal muscle, 5 and 10 mg/kg) was “no dose-dependence”, the “skeletal muscle palmitate and myristate levels” value ([3]; after saponification of muscle acylglycerols and acylcarnitines) was “significant decreases” and the “13CO2 release (glucose oxidation via the TCA cycle)” value ([3]; all three tissues) was “increased”. The “13CO2 enrichment after [U-13C]-D-glucose” value ([3]; liver and adipose tissues, 60 and 90 minutes post-tracer) was “clear dose-dependent increase”, the “13C-labeled fraction of palmitate” value ([3]; plasma or liver, data not shown) was “no increase” and the “dose-dependence of complete glucose tracer oxidation” value ([3]; skeletal muscle) was “no dose-dependence”. The “13C-labeled fatty acids in palmitate and myristate pools” value ([3]; skeletal muscle, 60 and 90 minutes) was “significantly enriched”, the “13CO2 enrichment after [U-13C]-D-glucose vs vehicle” value ([3]; skeletal muscle, 60 minutes) was “no differences” and the “level of 13C-labeled myristate compared to vehicle” value ([3]; skeletal muscle, 90 minute timepoint) was “two-fold higher”. The “tracer oxidation (13CO2 enrichment) after [U-13C]-D-glucose” value ([3]; skeletal muscle, 90 minutes) was “clearly sustained”.
